12 molecules from EP4745137A1 (Gluetacs Therapeutics (Shanghai) Co., Ltd., priority 2023, dated 2025) can be followed below.

What all share (format): cell-based
Holding throughout (conditions): 24 hours of compound treatment, 50 nM and 500 nM tested (concentration behind the class not stated)

For assay [1], the target named is T1, WEE1 (Homo sapiens, UniProt P30291+Q96SW2).
T1 construct: endogenous in cells; host or cells: hPBMCs (Milecell Biotechnologies)
Description: Western-blot assay of substrate protein degradation in hPBMCs, WEE1.

Assay [2] addresses T2, IKZF1 (Homo sapiens, UniProt Q13422+Q96SW2).
T2 construct: endogenous in cells; host or cells: hPBMCs (Milecell Biotechnologies)
Put plainly: Western-blot assay of substrate protein degradation in hPBMCs, IKZF1.

For assay [3], the target named is T3, IKZF2 (Homo sapiens, UniProt Q96SW2+Q9UKS7).
T3 construct: endogenous in cells; host or cells: hPBMCs (Milecell Biotechnologies)
T3 sequence (Q9UKS7 whole entry): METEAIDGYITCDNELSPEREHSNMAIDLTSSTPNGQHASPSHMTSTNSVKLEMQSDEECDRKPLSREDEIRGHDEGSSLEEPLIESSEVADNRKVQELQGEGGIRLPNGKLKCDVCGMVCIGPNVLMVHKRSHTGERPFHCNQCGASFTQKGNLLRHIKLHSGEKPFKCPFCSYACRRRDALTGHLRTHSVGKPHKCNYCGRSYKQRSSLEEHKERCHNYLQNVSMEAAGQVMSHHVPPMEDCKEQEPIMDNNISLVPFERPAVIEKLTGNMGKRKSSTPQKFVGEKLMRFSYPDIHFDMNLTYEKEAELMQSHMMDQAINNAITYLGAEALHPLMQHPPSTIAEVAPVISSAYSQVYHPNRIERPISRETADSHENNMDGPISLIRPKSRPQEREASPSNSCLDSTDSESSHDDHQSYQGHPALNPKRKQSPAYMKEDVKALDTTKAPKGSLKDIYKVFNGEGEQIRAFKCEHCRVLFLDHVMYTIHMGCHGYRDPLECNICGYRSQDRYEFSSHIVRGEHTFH
T3 sequence (Q96SW2 whole entry): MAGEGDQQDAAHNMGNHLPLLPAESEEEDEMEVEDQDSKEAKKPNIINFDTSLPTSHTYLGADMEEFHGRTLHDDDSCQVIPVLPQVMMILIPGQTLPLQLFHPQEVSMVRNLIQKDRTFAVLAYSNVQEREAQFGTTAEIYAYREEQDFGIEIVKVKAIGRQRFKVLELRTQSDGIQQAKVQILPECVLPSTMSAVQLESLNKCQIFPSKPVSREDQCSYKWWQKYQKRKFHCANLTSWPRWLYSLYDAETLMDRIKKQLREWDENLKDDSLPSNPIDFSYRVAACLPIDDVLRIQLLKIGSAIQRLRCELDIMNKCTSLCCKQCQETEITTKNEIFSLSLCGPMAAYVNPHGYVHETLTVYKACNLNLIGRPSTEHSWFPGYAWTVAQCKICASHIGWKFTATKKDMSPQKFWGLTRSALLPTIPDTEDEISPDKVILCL
T3 sequence (Q16531 whole entry partner): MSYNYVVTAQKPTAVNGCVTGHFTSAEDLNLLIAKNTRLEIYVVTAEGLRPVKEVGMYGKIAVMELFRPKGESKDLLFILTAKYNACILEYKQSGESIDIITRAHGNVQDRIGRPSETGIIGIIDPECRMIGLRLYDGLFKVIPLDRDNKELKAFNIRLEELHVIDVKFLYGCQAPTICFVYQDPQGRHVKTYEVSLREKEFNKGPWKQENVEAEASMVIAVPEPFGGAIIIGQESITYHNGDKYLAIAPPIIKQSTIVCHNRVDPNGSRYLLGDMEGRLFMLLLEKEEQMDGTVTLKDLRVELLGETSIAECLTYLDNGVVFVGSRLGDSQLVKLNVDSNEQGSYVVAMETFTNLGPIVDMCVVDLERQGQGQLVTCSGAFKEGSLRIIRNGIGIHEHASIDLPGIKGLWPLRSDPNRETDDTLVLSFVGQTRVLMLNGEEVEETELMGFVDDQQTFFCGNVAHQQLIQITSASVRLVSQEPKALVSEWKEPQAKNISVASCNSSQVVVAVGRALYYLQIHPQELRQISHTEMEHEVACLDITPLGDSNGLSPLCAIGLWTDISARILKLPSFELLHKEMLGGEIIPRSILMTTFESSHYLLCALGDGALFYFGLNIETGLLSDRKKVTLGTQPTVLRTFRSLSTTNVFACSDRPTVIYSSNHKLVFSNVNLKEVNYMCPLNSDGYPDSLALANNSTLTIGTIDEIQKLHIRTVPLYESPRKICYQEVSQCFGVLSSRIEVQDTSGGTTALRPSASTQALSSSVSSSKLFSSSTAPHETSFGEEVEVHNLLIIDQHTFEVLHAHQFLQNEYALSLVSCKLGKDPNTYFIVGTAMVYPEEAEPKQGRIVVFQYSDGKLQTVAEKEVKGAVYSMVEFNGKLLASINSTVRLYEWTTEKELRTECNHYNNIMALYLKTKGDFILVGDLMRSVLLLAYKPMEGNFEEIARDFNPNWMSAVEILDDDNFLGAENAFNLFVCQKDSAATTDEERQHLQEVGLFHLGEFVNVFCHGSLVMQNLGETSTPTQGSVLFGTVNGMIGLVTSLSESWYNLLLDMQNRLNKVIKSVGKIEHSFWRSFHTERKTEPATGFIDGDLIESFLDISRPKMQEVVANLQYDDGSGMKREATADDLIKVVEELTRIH
Description: Western-blot assay of substrate protein degradation in hPBMCs, IKZF2.

Assay [4] addresses T4, IKZF3 (Homo sapiens, UniProt Q96SW2+Q9UKT9).
T4 construct: endogenous in cells; host or cells: hPBMCs (Milecell Biotechnologies)
Description: Western-blot assay of substrate protein degradation in hPBMCs, IKZF3.

Assay [5] has as its target T5, CK1α (Homo sapiens, UniProt P48729+Q96SW2).
T5 construct: endogenous in cells; host or cells: hPBMCs (Milecell Biotechnologies)
Put plainly: Western-blot assay of substrate protein degradation in hPBMCs, CK1α.

Assay [6] addresses T6, GSPT1 (Homo sapiens, UniProt P15170+Q96SW2).
T6 construct: endogenous in cells; host or cells: hPBMCs (Milecell Biotechnologies)
Put plainly: Western-blot assay of substrate protein degradation in hPBMCs, GSPT1.

T2 sequence (Q13422 whole entry): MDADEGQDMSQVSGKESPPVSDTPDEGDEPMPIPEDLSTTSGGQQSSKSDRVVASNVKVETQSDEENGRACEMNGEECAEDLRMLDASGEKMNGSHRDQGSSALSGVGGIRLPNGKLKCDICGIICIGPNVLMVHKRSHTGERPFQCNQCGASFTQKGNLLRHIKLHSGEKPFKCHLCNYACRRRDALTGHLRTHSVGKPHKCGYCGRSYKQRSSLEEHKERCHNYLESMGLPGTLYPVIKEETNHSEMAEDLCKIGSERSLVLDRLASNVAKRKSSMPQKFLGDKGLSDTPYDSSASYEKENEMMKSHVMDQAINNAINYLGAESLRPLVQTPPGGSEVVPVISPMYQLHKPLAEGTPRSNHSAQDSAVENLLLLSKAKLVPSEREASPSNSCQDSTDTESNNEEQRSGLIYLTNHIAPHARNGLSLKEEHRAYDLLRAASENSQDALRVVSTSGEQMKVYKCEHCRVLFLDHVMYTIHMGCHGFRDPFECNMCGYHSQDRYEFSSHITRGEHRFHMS
T2 sequence (Q96SW2 whole entry): as the sequence (Q96SW2 whole entry) above
T2 sequence (Q16531 whole entry partner): as the sequence (Q16531 whole entry partner) above
T6 sequence (P15170 whole entry): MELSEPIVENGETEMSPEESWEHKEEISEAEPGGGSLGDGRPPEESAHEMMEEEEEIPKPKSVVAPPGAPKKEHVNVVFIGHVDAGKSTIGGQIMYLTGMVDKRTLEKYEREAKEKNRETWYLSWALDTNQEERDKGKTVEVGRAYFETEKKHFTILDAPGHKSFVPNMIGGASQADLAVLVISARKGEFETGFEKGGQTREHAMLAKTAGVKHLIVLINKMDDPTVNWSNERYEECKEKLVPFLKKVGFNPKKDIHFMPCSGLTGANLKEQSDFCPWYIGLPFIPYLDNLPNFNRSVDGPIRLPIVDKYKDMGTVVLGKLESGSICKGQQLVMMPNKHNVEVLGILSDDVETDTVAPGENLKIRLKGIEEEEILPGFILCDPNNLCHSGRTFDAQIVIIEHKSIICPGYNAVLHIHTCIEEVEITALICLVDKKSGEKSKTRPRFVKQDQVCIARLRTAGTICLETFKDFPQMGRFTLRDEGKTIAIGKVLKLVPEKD
T6 sequence (Q96SW2 whole entry): as the sequence (Q96SW2 whole entry) above
T6 sequence (Q16531 whole entry partner): as the sequence (Q16531 whole entry partner) above
T1 sequence (P30291 whole entry): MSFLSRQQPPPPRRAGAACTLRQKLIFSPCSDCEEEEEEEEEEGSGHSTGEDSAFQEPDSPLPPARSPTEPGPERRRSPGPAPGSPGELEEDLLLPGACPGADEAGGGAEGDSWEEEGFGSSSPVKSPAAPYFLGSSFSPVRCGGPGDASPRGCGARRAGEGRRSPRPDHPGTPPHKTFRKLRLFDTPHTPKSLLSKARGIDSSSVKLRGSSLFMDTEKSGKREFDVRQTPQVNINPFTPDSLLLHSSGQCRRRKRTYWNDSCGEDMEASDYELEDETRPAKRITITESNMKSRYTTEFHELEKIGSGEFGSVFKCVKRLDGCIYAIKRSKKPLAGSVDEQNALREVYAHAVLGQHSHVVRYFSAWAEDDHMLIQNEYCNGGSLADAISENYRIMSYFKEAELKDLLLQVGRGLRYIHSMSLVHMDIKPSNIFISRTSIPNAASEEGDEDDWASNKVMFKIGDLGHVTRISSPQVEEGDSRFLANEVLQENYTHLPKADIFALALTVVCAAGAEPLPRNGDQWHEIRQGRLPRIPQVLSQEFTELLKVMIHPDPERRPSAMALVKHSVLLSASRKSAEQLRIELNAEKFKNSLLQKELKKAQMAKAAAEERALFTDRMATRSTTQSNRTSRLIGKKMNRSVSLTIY
T1 sequence (Q96SW2 whole entry): as the sequence (Q96SW2 whole entry) above
T1 sequence (Q16531 whole entry partner): as the sequence (Q16531 whole entry partner) above
T4 sequence (Q9UKT9 whole entry): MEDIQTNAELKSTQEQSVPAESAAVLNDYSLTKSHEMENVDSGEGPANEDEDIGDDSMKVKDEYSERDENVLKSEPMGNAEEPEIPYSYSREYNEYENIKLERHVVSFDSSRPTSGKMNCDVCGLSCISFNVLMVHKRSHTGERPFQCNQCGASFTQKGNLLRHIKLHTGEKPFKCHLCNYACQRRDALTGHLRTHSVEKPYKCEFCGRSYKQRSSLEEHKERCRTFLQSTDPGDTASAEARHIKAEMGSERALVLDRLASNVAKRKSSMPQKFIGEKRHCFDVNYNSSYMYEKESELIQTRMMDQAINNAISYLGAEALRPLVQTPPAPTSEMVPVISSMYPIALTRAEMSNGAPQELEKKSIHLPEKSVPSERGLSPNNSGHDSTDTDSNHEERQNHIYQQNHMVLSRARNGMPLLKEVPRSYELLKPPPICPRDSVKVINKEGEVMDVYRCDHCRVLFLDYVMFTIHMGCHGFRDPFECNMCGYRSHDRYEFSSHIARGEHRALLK
T4 sequence (Q96SW2 whole entry): as the sequence (Q96SW2 whole entry) above
T4 sequence (Q16531 whole entry partner): as the sequence (Q16531 whole entry partner) above

Regarding `COc1cccc(N2CCN(Cc3ccc4c(c3)C(=O)N(C3CCC(=O)NC3=O)C4=O)CC2)c1` (stereo not drawn) [GT-06288, 2-(2,6-dioxopiperidin-3-yl)-5-((4-(3-methoxyphenyl)piperazin-1-yl)methyl)isoindoline-1,3-dione], the “Weel substrate protein remaining %” value in assay [1] is “B (80%< substrate protein remaining %≤ 100%)”. Further, in assay [2], the “IKZF 1 substrate protein remaining %” value is “B (80%< substrate protein remaining %≤ 100%)”. The “IKZF2 substrate protein remaining %” value in assay [3] is reported as “B (80%< substrate protein remaining %≤ 100%)”. In assay [4], the “IKZF3 substrate protein remaining %” value was “B (80%< substrate protein remaining %≤ 100%)”. Moreover, the “CK1a substrate protein remaining %” value in assay [5] is “B (80%< substrate protein remaining %≤ 100%)”. The “GSPT1 substrate protein remaining %” value in assay [6] is listed as “A (0% ≤ substrate protein remaining % ≤ 80%)”.

In the case of `O=C1CCC(N2C(=O)c3ccc(CN4CCN(c5cccc(Br)c5)CC4)cc3C2=O)C(=O)N1` (stereo not drawn) [GT-06289, 5-((4-(3-bromophenyl)piperazin-1-yl)methyl)-2-(2,6-dioxopiperidin-3-yl)isoindoline-1,3-dione], the “Weel substrate protein remaining %” value in assay [1] is on record as “B (80%< substrate protein remaining %≤ 100%)”. Further, the “IKZF 1 substrate protein remaining %” value in assay [2] is reported as “B (80%< substrate protein remaining %≤ 100%)”. Moreover, the “IKZF2 substrate protein remaining %” value in assay [3] is reported as “B (80%< substrate protein remaining %≤ 100%)”. Also, the “IKZF3 substrate protein remaining %” value in assay [4] was “B (80%< substrate protein remaining %≤ 100%)”. In assay [5], the “CK1a substrate protein remaining %” value was “B (80%< substrate protein remaining %≤ 100%)”. Moreover, the “GSPT1 substrate protein remaining %” value in assay [6] is on record as “A (0% ≤ substrate protein remaining % ≤ 80%)”.

With `O=C1CCC(N2C(=O)c3ccc(CN4CCN(c5ccc(C(F)(F)F)cc5)CC4)cc3C2=O)C(=O)N1` (stereo not drawn) [GT-06290, 2-(2,6-dioxopiperidin-3-yl)-5-((4-(4-(trifluoromethyl)phenyl)piperazin-1-yl)methyl)isoindoline-1,3-dione], the “Weel substrate protein remaining %” value in assay [1] is on record as “B (80%< substrate protein remaining %≤ 100%)”. The “IKZF 1 substrate protein remaining %” value in assay [2] is “B (80%< substrate protein remaining %≤ 100%)”. In addition, in assay [3], the “IKZF2 substrate protein remaining %” value is recorded as “B (80%< substrate protein remaining %≤ 100%)”. Besides, the “IKZF3 substrate protein remaining %” value in assay [4] is “B (80%< substrate protein remaining %≤ 100%)”. For the same molecule, the “CK1a substrate protein remaining %” value in assay [5] is reported as “B (80%< substrate protein remaining %≤ 100%)”. The “GSPT1 substrate protein remaining %” value in assay [6] was “A (0% ≤ substrate protein remaining % ≤ 80%)”.

For the molecule `O=C1CCC(N2C(=O)c3ccc(CN4CCN(c5cccc(F)c5)CC4)cc3C2=O)C(=O)N1` (stereo not drawn) [GT-06291, 2-(2,6-dioxopiperidin-3-yl)-5-((4-(3-fluorophenyl)piperazin-1-yl)methyl)isoindoline-1,3-dione], the “Weel substrate protein remaining %” value in assay [1] was “B (80%< substrate protein remaining %≤ 100%)”. In addition, in assay [2], the “IKZF 1 substrate protein remaining %” value is given as “B (80%< substrate protein remaining %≤ 100%)”. Also, in assay [3], the “IKZF2 substrate protein remaining %” value is reported as “B (80%< substrate protein remaining %≤ 100%)”. Also, in assay [4], the “IKZF3 substrate protein remaining %” value is “B (80%< substrate protein remaining %≤ 100%)”. Moreover, the “CK1a substrate protein remaining %” value in assay [5] was “B (80%< substrate protein remaining %≤ 100%)”. Further, in assay [6], the “GSPT1 substrate protein remaining %” value is recorded as “A (0% ≤ substrate protein remaining % ≤ 80%)”.

For the molecule `O=C1CCC(N2C(=O)c3ccc(CN4CCN(c5ccc(F)cc5)CC4)cc3C2=O)C(=O)N1` (stereo not drawn) [GT-06292, 2-(2,6-dioxopiperidin-3-yl)-5-((4-(4-fluorophenyl)piperazin-1-yl)methyl)isoindoline-1,3-dione], in assay [1], the “Weel substrate protein remaining %” value is recorded as “B (80%< substrate protein remaining %≤ 100%)”. In addition, the “IKZF 1 substrate protein remaining %” value in assay [2] is listed as “B (80%< substrate protein remaining %≤ 100%)”. Besides, in assay [3], the “IKZF2 substrate protein remaining %” value is recorded as “B (80%< substrate protein remaining %≤ 100%)”. Moreover, the “IKZF3 substrate protein remaining %” value in assay [4] is given as “B (80%< substrate protein remaining %≤ 100%)”. The “CK1a substrate protein remaining %” value in assay [5] is “B (80%< substrate protein remaining %≤ 100%)”. The “GSPT1 substrate protein remaining %” value in assay [6] is listed as “A (0% ≤ substrate protein remaining % ≤ 80%)”.

Turning to `O=C1CCC(N2C(=O)c3ccc(CN4CCN(c5ccccc5Br)CC4)cc3C2=O)C(=O)N1` (stereo not drawn) [GT-06293, 5-((4-(2-bromophenyl)piperazin-1-yl)methyl)-2-(2,6-dioxopiperidin-3-yl)isoindoline-1,3-dione], the “Weel substrate protein remaining %” value in assay [1] is on record as “B (80%< substrate protein remaining %≤ 100%)”. Moreover, the “IKZF 1 substrate protein remaining %” value in assay [2] is given as “B (80%< substrate protein remaining %≤ 100%)”. Also, the “IKZF2 substrate protein remaining %” value in assay [3] is listed as “B (80%< substrate protein remaining %≤ 100%)”. Besides, the “IKZF3 substrate protein remaining %” value in assay [4] is “B (80%< substrate protein remaining %≤ 100%)”. For the same molecule, in assay [5], the “CK1a substrate protein remaining %” value is recorded as “B (80%< substrate protein remaining %≤ 100%)”. Moreover, in assay [6], the “GSPT1 substrate protein remaining %” value is “A (0% ≤ substrate protein remaining % ≤ 80%)”.

For `O=C1CCC(N2C(=O)c3ccc(CN4CCN(c5ccc(Br)cc5)CC4)cc3C2=O)C(=O)N1` (stereo not drawn) [GT-06295, 5-((4-(4-bromophenyl)piperazin-1-yl)methyl)-2-(2,6-dioxopiperidin-3-yl)isoindoline-1,3-dione], the “Weel substrate protein remaining %” value in assay [1] is “B (80%< substrate protein remaining %≤ 100%)”. Also, the “IKZF 1 substrate protein remaining %” value in assay [2] is “B (80%< substrate protein remaining %≤ 100%)”. In addition, the “IKZF2 substrate protein remaining %” value in assay [3] is given as “B (80%< substrate protein remaining %≤ 100%)”. Further, the “IKZF3 substrate protein remaining %” value in assay [4] is recorded as “B (80%< substrate protein remaining %≤ 100%)”. For the same molecule, the “CK1a substrate protein remaining %” value in assay [5] is on record as “B (80%< substrate protein remaining %≤ 100%)”. Moreover, the “GSPT1 substrate protein remaining %” value in assay [6] was “A (0% ≤ substrate protein remaining % ≤ 80%)”.

Consider `Cc1ccccc1N1CCN(Cc2ccc3c(c2)C(=O)N(C2CCC(=O)NC2=O)C3=O)CC1` (stereo not drawn) [GT-06296, 2-(2,6-dioxopiperidin-3-yl)-5-((4-(o-tolyl)piperazin-1-yl)methyl)isoindoline-1,3-dione], for which the “Weel substrate protein remaining %” value in assay [1] is given as “B (80%< substrate protein remaining %≤ 100%)”. In addition, the “IKZF 1 substrate protein remaining %” value in assay [2] is listed as “B (80%< substrate protein remaining %≤ 100%)”. The “IKZF2 substrate protein remaining %” value in assay [3] was “B (80%< substrate protein remaining %≤ 100%)”. The “IKZF3 substrate protein remaining %” value in assay [4] was “B (80%< substrate protein remaining %≤ 100%)”. In addition, the “CK1a substrate protein remaining %” value in assay [5] was “B (80%< substrate protein remaining %≤ 100%)”. Further, the “GSPT1 substrate protein remaining %” value in assay [6] is given as “A (0% ≤ substrate protein remaining % ≤ 80%)”.

In the case of `O=C1CCC(N2C(=O)c3ccc(CN4CCN(c5c(Cl)cccc5Cl)CC4)cc3C2=O)C(=O)N1` (stereo not drawn) [GT-06297, 5-((4-(2,6-dichlorophenyl)piperazin-1-yl)methyl)-2-(2,6-dioxopiperidin-3-yl)isoindoline-1,3-dione], the “Weel substrate protein remaining %” value in assay [1] is recorded as “B (80%< substrate protein remaining %≤ 100%)”. Besides, in assay [2], the “IKZF 1 substrate protein remaining %” value is on record as “B (80%< substrate protein remaining %≤ 100%)”. In assay [3], the “IKZF2 substrate protein remaining %” value was “B (80%< substrate protein remaining %≤ 100%)”. Moreover, the “IKZF3 substrate protein remaining %” value in assay [4] is “B (80%< substrate protein remaining %≤ 100%)”. Also, the “CK1a substrate protein remaining %” value in assay [5] is “B (80%< substrate protein remaining %≤ 100%)”. Besides, the “GSPT1 substrate protein remaining %” value in assay [6] is listed as “A (0% ≤ substrate protein remaining % ≤ 80%)”.

Take `O=C1CCC(N2C(=O)c3ccc(CN4CCN(c5ccc(Cl)c(Cl)c5)CC4)cc3C2=O)C(=O)N1` (stereo not drawn) [GT-06298, 5-((4-(3,4-dichlorophenyl)piperazin-1-yl)methyl)-2-(2,6-dioxopiperidin-3-yl)isoindoline-1,3-dione]: the “Weel substrate protein remaining %” value in assay [1] was “B (80%< substrate protein remaining %≤ 100%)”. The “IKZF 1 substrate protein remaining %” value in assay [2] is recorded as “B (80%< substrate protein remaining %≤ 100%)”. Also, the “IKZF2 substrate protein remaining %” value in assay [3] is given as “B (80%< substrate protein remaining %≤ 100%)”. Besides, the “IKZF3 substrate protein remaining %” value in assay [4] is given as “B (80%< substrate protein remaining %≤ 100%)”. In assay [5], the “CK1a substrate protein remaining %” value is listed as “B (80%< substrate protein remaining %≤ 100%)”. For the same molecule, the “GSPT1 substrate protein remaining %” value in assay [6] is on record as “A (0% ≤ substrate protein remaining % ≤ 80%)”.

Take `O=C1CCC(N2C(=O)c3ccc(CN4CCN(c5cc(Cl)cc(Cl)c5)CC4)cc3C2=O)C(=O)N1` (stereo not drawn) [GT-06299, 5-((4-(3,5-dichlorophenyl)piperazin-1-yl)methyl)-2-(2,6-dioxopiperidin-3-yl)isoindoline-1,3-dione]: the “Weel substrate protein remaining %” value in assay [1] is “B (80%< substrate protein remaining %≤ 100%)”. Besides, the “IKZF 1 substrate protein remaining %” value in assay [2] is recorded as “B (80%< substrate protein remaining %≤ 100%)”. Besides, the “IKZF2 substrate protein remaining %” value in assay [3] is given as “B (80%< substrate protein remaining %≤ 100%)”. In assay [4], the “IKZF3 substrate protein remaining %” value is “B (80%< substrate protein remaining %≤ 100%)”. Besides, the “CK1a substrate protein remaining %” value in assay [5] is reported as “B (80%< substrate protein remaining %≤ 100%)”. Also, in assay [6], the “GSPT1 substrate protein remaining %” value is “A (0% ≤ substrate protein remaining % ≤ 80%)”.

For `O=C1CCC(N2C(=O)c3ccc(CN4CCN(c5cccc(F)c5F)CC4)cc3C2=O)C(=O)N1` (stereo not drawn) [GT-06300, 5-((4-(2,3-difluorophenyl)piperazin-1-yl)methyl)-2-(2,6-dioxopiperidin-3-yl)isoindoline-1,3-dione], the “Weel substrate protein remaining %” value in assay [1] is listed as “B (80%< substrate protein remaining %≤ 100%)”. In addition, the “IKZF 1 substrate protein remaining %” value in assay [2] is listed as “B (80%< substrate protein remaining %≤ 100%)”. In addition, the “IKZF2 substrate protein remaining %” value in assay [3] is listed as “B (80%< substrate protein remaining %≤ 100%)”. For the same molecule, the “IKZF3 substrate protein remaining %” value in assay [4] is given as “B (80%< substrate protein remaining %≤ 100%)”. For the same molecule, the “CK1a substrate protein remaining %” value in assay [5] is on record as “B (80%< substrate protein remaining %≤ 100%)”. In assay [6], the “GSPT1 substrate protein remaining %” value was “A (0% ≤ substrate protein remaining % ≤ 80%)”.
